Article PMC7604503, “Cyclic peptides can engage a single binding pocket through highly divergent modes” (Proceedings of the National Academy of Sciences of the …, 2020)
Where a SMILES comes first, the peptide text is derived from it. Bridges are numbered along the chain shown (N, C = ends).

Key:
[1] = molecular target: T1, BRD2-BD1 (Homo sapiens, UniProt P25440); assay: SPR binding of peptides to immobilised biotinylated BET bromodomain
T1 construct: human BRD2 (BD1: 65-194; BD2: 347-455); Avi tag (biotinylated); made in house; host or cells: E. coli BL21(DE3)
T1 sequence (P25440 65-194): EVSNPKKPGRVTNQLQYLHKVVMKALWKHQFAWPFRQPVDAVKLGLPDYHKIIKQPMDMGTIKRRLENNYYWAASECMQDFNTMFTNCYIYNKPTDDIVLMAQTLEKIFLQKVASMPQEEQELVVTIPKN
Method: (§1) We next assessed the ability of each of the three lead peptides to bind BRD3-BD1. […] To assess selectivity for other BET BDs, we used SPR to determine the binding affinity of each peptide toward the remaining BDs from BRD2, BRD3, and BRD4 (Fig. 1B). […]
(§2) Peptides were synthesised as C-terminal amides using standard fluorenylmethyloxycarbonyl (Fmoc)-strategy solid-phase chemistry using a Syro I automated synthesiser (Biotage) and NovaPEG Rink Amide resin (Novabiochem). Couplings were performed with HBTU/HOBt (1:1) and 6 equivalents of each amino acid. Double couplings were performed for arginine residues.
(§3) Following the final amino acid coupling reaction, the Fmoc group was removed and resin incubated with N-(chloroacetoxy)succinimide (0.2 M in DMF, 1 h, RT). Resin was washed with DMF (5 times) and DCM (5 times) and dried in vacuo.
(§4) Linear peptides were cleaved from the resin by incubation (3 h, RT) with a trifluoroacetic acid (TFA) cleavage cocktail (TFA/2,2’-(ethylenedioxy)diethanethiol/triisopropyl silane/H2O (92.5:2.5:2.5:2.5)) before filtration, concentration in vacuo and precipitation with ice-cold diethyl ether. Crude peptides were washed with diethyl ether (5 times), dried and resuspended in DMSO. The pH was raised to >8 using triethylamine to allow cyclisation. Following incubation (1 h, RT), peptides were re-acidified with TFA for purification.
(§5) Crude peptides were purified by reverse-phase high-performance liquid chromatography using a Chromolith Prep column (Merck) on a Prominence LC-20AP system (Shimadzu) (Solvent A: 0.1% TFA in H2O, Solvent B: 0.1% TFA in acetonitrile) to >95% purity as determined by mass spectrometry (Fig. S17). Purified peptides were reconstituted in DMSO and concentrations determined from their absorbance at 280 nm in 5% DMSO using predicted extinction coefficients.
(§6) Surface plasmon resonance (SPR)
(§7) Measurements were conducted on a T200 or S200 (GE Healthcare) and data analysed using the Biacore Insight Evaluation Software. Experiments were performed at 4 °C in single cycle kinetics mode. Biotinylated BET bromodomains were immobilised on a CAP chip (GE Healthcare) with a […]
(§8) pH 7.5 was used as the running buffer. […]

[2] = molecular target: T2, BRD3-BD2 (Homo sapiens, UniProt Q15059); assay: as above
T2 construct: Avi tag (biotinylated); made in house; host or cells: E. coli BL21(DE3)
T2 sequence (Q15059 307-419): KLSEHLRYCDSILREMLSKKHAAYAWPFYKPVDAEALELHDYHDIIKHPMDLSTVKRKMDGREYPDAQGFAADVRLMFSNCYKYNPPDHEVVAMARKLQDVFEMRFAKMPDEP
Method: as §1, §2, §3, §4, §5, §6, §7, §8

[3] = molecular target: T3, BRD4-BD1 (Homo sapiens, UniProt O60885); assay: as above
T3 construct: BRD4 (BD1: 42-168; BD2: 348-464); Avi tag (biotinylated); made in house; host or cells: E. coli Rosetta2(DE3)
Method: as §1, §2, §3, §4, §5, §6, §7, §8

[4] = molecular target: T4, BRD4-BD2 (Homo sapiens, UniProt O60885); assay: as above
T4 construct: BRD4 (BD1: 42-168; BD2: 348-464); Avi tag (biotinylated); made in house; host or cells: E. coli BL21(DE3)
Method: as §1, §2, §3, §4, §5, §6, §7, §8

[5] = molecular target: T5, BRD3(1) (Homo sapiens, UniProt Q15059); assay: BROMOscan competition binding assay (BromoMAX, Eurofins DiscoverX); conditions: for Percent Control BRD3(1): compound concentration 1000 nM, lower percentage control = stronger affinity
T5 construct: BRD3(1); purchased Eurofins DiscoverX (BROMOscan, BromoMAX)
T5 sequence (Q15059 24-144 limits assumed): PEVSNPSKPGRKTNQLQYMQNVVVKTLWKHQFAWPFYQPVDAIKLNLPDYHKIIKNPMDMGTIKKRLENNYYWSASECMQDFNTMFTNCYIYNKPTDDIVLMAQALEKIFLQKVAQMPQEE

[6] = molecular target: T6, BRD7 (Homo sapiens, UniProt Q9NPI1); assay: as above; conditions: for Percent Control BRD7: compound concentration 1000 nM, lower percentage control = stronger affinity
T6 construct: purchased Eurofins DiscoverX (BROMOscan, BromoMAX)
T6 sequence (Q9NPI1 1-651): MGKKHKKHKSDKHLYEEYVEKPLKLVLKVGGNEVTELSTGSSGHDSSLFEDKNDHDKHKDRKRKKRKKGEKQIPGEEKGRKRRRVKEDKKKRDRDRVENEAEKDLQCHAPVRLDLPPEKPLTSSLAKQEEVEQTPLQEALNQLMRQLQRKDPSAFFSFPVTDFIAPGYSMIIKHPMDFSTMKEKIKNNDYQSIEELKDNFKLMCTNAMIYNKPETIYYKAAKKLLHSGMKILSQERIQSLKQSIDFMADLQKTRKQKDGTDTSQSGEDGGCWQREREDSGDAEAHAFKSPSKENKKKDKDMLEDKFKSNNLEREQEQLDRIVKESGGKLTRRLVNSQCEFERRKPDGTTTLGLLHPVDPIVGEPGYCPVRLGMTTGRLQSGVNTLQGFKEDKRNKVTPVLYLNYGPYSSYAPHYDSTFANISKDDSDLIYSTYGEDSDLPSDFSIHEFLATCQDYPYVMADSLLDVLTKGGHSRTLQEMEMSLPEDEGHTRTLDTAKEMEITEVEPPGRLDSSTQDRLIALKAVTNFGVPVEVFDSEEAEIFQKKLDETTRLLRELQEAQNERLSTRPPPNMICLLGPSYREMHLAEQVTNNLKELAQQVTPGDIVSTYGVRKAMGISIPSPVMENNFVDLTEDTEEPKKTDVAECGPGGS

[7] = molecular target: T7, BRDT(2) (Homo sapiens, UniProt Q58F21); assay: as above; conditions: for Percent Control BRDT(2): compound concentration 1000 nM, lower percentage control = stronger affinity
T7 construct: BRDT(2); purchased Eurofins DiscoverX (BROMOscan, BromoMAX)

[8] = molecular target: T8, TAF1L(2) (Homo sapiens, UniProt Q8IZX4); assay: as above; conditions: for Percent Control TAF1L(2): compound concentration 1000 nM, lower percentage control = stronger affinity
T8 construct: TAF1L(2); purchased Eurofins DiscoverX (BROMOscan, BromoMAX)
T8 sequence (Q8IZX4 1519-1654 limits assumed): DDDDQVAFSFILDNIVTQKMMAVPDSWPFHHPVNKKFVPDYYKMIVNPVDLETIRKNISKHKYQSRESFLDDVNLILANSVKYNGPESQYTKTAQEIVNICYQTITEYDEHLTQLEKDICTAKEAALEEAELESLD

[9] = 4 C, geometric mean and SD of two to five measurements
[10] = gray boxed value: no reproducible signals observed at the concentrations used

SMILES	Kd [1, 9]	Kd [2, 10]	Kd [3, 9]	Kd [4, 10]	Percent Control BRD3(1) [5]	Percent Control BRD7 [6]	Percent Control BRDT(2) [7]	Percent Control TAF1L(2) [8]	Kd [2, 9]	Kd [4, 9]	Kd [1, 10]	Kd [3, 10]	remaining binding at 1 µM ([5]; read-out: Percent Control BRD3(1))	remaining binding at 1 µM ([6]; read-out: Percent Control BRD7)	percent of control binding at 1 µM [7]	remaining binding at 1 µM ([8]; read-out: Percent Control TAF1L(2))
CC[C@H](C)[C@@H]1NC(=O)[C@H]([C@@H](C)O)NC(=O)[C@H](CCCCN)NC(=O)[C@H](Cc2c[nH]c3ccccc23)NC(=O)CSC[C@@H](C(N)=O)NC(=O)[C@H](CCC(N)=O)NC(=O)[C@H](CCCCNC(C)=O)NC(=O)[C@H]([C@@H](C)O)NC(=O)[C@H](CCCNC(=N)N)NC(=O)[C@H](Cc2c[nH]c3ccccc23)NC(=O)[C@H]([C@@H](C)O)NC(=O)[C@H](CCCCNC(C)=O)NC(=O)CNC(=O)[C@H](CCCCNC(C)=O)NC1=O [3.1B] ({CH2CO}-WKTIK(Ac)GK(Ac)TWRTK(Ac)QC-NH2; thioether N-14)	0.27 ± 0.16 nM	> 10000 nM	0.55 ± 0.33 nM	> 10000 nM	1.4%	99%	100%	100%								
CC[C@H](C)[C@@H]1NC(=O)[C@H](Cc2c[nH]c3ccccc23)NC(=O)[C@H](Cc2c[nH]c3ccccc23)NC(=O)CSC[C@@H](C(N)=O)NC(=O)CNC(=O)[C@H](CCCCNC(C)=O)NC(=O)[C@H](CCCCN)NC(=O)[C@H](C(C)C)NC(=O)[C@H](CCCCNC(C)=O)NC(=O)[C@@H]2CCCN2C(=O)[C@H]([C@@H](C)CC)NC1=O [3.1C] ({CH2CO}-WWIIPK(Ac)VKK(Ac)GC-NH2; thioether N-11)	0.19 ± 0.04 nM		0.35 ± 0.1 nM		0%	96%	4.9%	100%	13 ± 12 nM	340 ± 350 nM						
CC[C@H](C)[C@H](NC(=O)[C@H](CCCNC(=N)N)NC(=O)[C@H](CCCCNC(C)=O)NC(=O)[C@H](CCCNC(=N)N)NC(=O)[C@H](CC(C)C)NC(=O)[C@@H]1CSCC(=O)N[C@@H](Cc2c[nH]c3ccccc23)C(=O)N[C@@H](CCCCNC(C)=O)C(=O)NCC(=O)N[C@@H](Cc2ccc(O)cc2)C(=O)N[C@@H](CC(C)C)C(=O)N1)C(=O)N[C@@H](CCC(N)=O)C(=O)N[C@@H](CCCNC(=N)N)C(=O)N[C@H](C(=O)N[C@@H](Cc1ccc(O)cc1)C(=O)N[C@@H](CC(N)=O)C(N)=O)[C@@H](C)O [4.2C] ({CH2CO}-WK(Ac)GYLCLRK(Ac)RIQRTYN-NH2; thioether N-6)									110 ± 116 nM	36 ± 35 nM	> 10000 nM	> 10000 nM	100%	97%	92%	100%
